Laboratory results as given in PMC7070898 (Clinical and Translational Science, 2019).

Experiments:
[1] = system: experimental autoimmune encephalomyelitis; details: B cell‐dependent and T cell‐dependent EAE mouse models ref 9, 10; cited from earlier work
[2] = system: collagen‐induced arthritis; details: collagen‐induced arthritis mouse model ref 8; cited from earlier work
[3] = Plasma pharmacokinetics, noncompartmental, SAD/MAD trial; format: in vivo, human; details: for Vd/F / half-life: human, in vivo; for Vd/F: Vz/F, N 9, geometric mean (CV% GM)
[4] = system: interferon‐accelerated systemic lupus erythematosus; details: mouse model of interferon‐accelerated systemic lupus erythematosus ref 8; cited from earlier work
[5] = system: B cell and basophil activation; details: human cellular assays ref 8; cited from earlier work

C=CC(=O)N1CCC(CNc2ncnc(N)c2-c2ccc(Oc3ccccc3)cc2)CC1 [evobrutinib]
central nervous system inflammation and disease severity [1]: limited central nervous system inflammation and disease severity | rheumatoid arthritis‐like symptoms [2]: rheumatoid arthritis‐like symptoms were inhibited | Vd/F ([3]; 25 mg, multiple-dose study day 1, 25 mg): 498 L | Vd/F ([3]; 75 mg, multiple-dose study day 1, 75 mg): 620 L | Vd/F ([3]; 200 mg, multiple-dose study day 1, 200 mg): 647 L | half-life ([3]; 500 mg, geometric mean terminal half‐life (t1/2), single doses 350 and 500 mg): 396 to 408 min | half-life ([3]; geometric mean terminal half‐life (t1/2), single doses 25–200 mg): 108 to 156 min | half-life ([3]; half‐life (relevant t1/2), overall summary, all doses): ~120 min | dose proportionality of AUC0–24h and Cmax ([3]; multiple dosing of 25–200 mg, power model): Dose proportionality of AUC0–24h and Cmax was demonstrated | time dependency of PK ([3]; part 2, day 14 vs day 1): no time dependency | Apparent clearance across doses ([3]; single dosing 25–500 mg, part 1): 2,553–3,995 mL/minute | disease activity [4]: robust reduction in disease activity | inhibition of B cell and basophil activation [5]: potently inhibits B cell and basophil activation
